From patent US20250320288A1, “METHOD OF TREATING VITILIGO WITH INTERFERON-GAMMA ANTIBODY” (Elixiron Immunotherapeutics (Hong Kong), priority 2022, published 2025)
Entries after “also recorded” stand apart in the source; their conditions may differ.

Experiments:
primary melanocytes [1] = assay: Melanocyte cell viability after IFN-γ, chemokines, cell death inhibitors or 2A6Q, Day 2 and Day 7; type: cell-based, human; conditions: for rescue of IFN-γ induced melanocyte cell death (cell viability): melanocytes with IFN-γ, up to seven days
Experimental: To determine cell viability of melanocyte after treatment with IFN-γ, CXCL9, CXCL10, CXCL11, at Day 2, and Day 7, the cells were collected and seeded into 96-well plates. After adhesion, cells were treated with IFN-γ (0, 10, 100 ng/ml) with different compounds: 2A6Q, CXCL9, CXCL10, CXCL11, ROS scavenger (NAC), necroptosis inhibitor (NEC-1), pyroptosis inhibitor (VX-765), apoptosis inhibitor (QVD-OPH), Ferroptosis inhibitor (Liproxstaitin-1, Ferrostatin-1, DFO). Cell viability was measured using a CellTiter-Glo luminescent cell viability assay kit (Promega) according to the manufacturer's protocol. The […] of the final reaction product was measured using a luminometer (SpectraMax® iD3 Multi-Mode Microplate Reader (Molecular Devices). After calculation, the viability of control cells was 100%, and all others were normalized to control and shown as relative cell viability (%). Treatment dosage N-acetylcysteine (NAC; 0.05 mM, 1 mM), Necrostatin-1 (NEC-1; 20 μM, 2 μM), Belnacasan (VX-765; 50 μg/mL, 5 μg/mL), Quinoline-Val Asp-Difluorophenoxymethylketone (QVD-OPH; 10 μM, 2 μM), Liproxstaitin-1 (10 μM, 5 μM, 1 μM, 0.05 μM), Ferrostatin-1 (5 μM, 1 μM), Deferoxamine (DFO; 10 μM, […], 1 μM, 0.05 μM), 2A6Q (10 μg/mL), CXCL9 (10 ng/mL, 10 pg/mL), CXCL10 (10 ng/ml, 10 pg/mL), CXCL11(10 ng/mL, 10 pg/mL).

primary melanocytes [2] = assay: Cell morphology assay in melanocytes; type: cell-based, human; conditions: primary melanocytes, 7 days of treatment
[3] = cited from earlier work

## CN1C(=O)C(Cc2c[nH]c3ccccc23)NC1=S (centres unmarked) [NEC-1, Necrostatin-1]
Primary melanocytes [1]
  rescue of IFN-γ induced melanocyte cell death (cell viability): unable to restore

## CC(=O)N[C@@H](CS)C(=O)O [NAC, N-acetylcysteine]
Primary melanocytes [1]
  rescue of IFN-γ induced melanocyte cell death (cell viability): did not find a rescue effect; also recorded: unable to restore

## CCO[C@@H]1OC(=O)C[C@@H]1NC(=O)[C@@H]1CCCN1C(=O)[C@@H](NC(=O)c1ccc(N)c(Cl)c1)C(C)(C)C [VX-765, Belnacasan]
Primary melanocytes [1]
  rescue of IFN-γ induced melanocyte cell death (cell viability): unable to restore

## IFN-α
Primary melanocytes [2]
  morphology change in melanocyte (loss of dendrite, ballooning of cytoplasm): not IFN-α was found to contributes to morphology change

## Clc1cccc(CN=C2Nc3ccccc3NC23CCNCC3)c1 [Liproxstatin-1]
Primary melanocytes [1]
  rescue of IFN-γ induced melanocyte cell death (cell viability): can partially rescue

## CXCL10: IFN-γ downstream cytokine added to melanocytes
Primary melanocytes [1]; day 7 of treatment
  effect on cell viability of melanocytes (individual cytokine): not CXCL9, CXCL10, or CXCL11 significantly decreases

## CC(C)[C@H](NC(=O)c1ccc2ccccc2n1)C(=O)N[C@@H](CC(=O)O)C(=O)COc1c(F)cccc1F [QVDOPH, Quinoline-Val Asp-Difluorophenoxymethylketone]
Primary melanocytes [1]
  rescue of IFN-γ induced melanocyte cell death (cell viability): unable to restore
Primary melanocytes [1]; listed as pan-caspase inhibitor
  rescue of IFN-γ induced melanocyte cell death (cell viability): unable to rescue

## NI-0501: another anti-IFN-γ antibody, described in U.S. Pat. No. 7,700,098 B2
[3]; at all dose groups
  Key Study Findings: mortalities: There were mortalities
[3]; cynomolgus monkey, in vivo
  Key Study Findings: GI tract infection caused by Shigella sp. and Campylobacter sp.: infection was confirmed
[3]; from 18 monkeys
  Key Study Findings: monkeys early sacrificed because of severe clinical signs: 7 monkeys were early
